Calls of active or inactive are those of the source. The rule behind the calls is not given here.
Legend:
[1] = system: Mus musculus; assay: Antiobesity activity in lean normal BALB/c mouse assessed as change in average daily weight at 0.60 mmol/kg/day administered through diet for 7 days relative to time-matched control; format: functional
[2] = system: Mus musculus; assay: Toxicity in lean normal BALB/c mouse assessed as overt signs of behavioural changes at equimolar dose of 0.5 mmol/kg galegine administered daily through diet for 7 days; format: organism-based; details: in vivo, po, 168 h
[3] = system: Mus musculus; assay: Antiobesity activity in lean normal BALB/c mouse assessed as change in average daily food intake at 0.60 mmol/kg/day administered through diet for 7 days relative to time-matched control; format: functional
[4] = system: Mus musculus; assay: Antidiabetic activity in lean normal BALB/c mouse assessed as effect on blood lactate level at equimolar dose of 0.5 mmol/kg galegine administered daily through diet for 7 days; format: functional, organism-based
[5] = system: Mus musculus; assay: Antiobesity activity in lean normal BALB/c mouse assessed as change in average daily weight at equimolar dose of 0.5 mmol/kg galegine administered daily through diet for 7 days; format: functional, organism-based
[6] = system: Mus musculus; assay: Antiobesity activity in lean normal BALB/c mouse assessed as change in average daily food intake at equimolar dose of 0.5 mmol/kg galegine administered daily through diet for 7 days; format: functional, organism-based
[7] = system: Mus musculus; assay: Hypoglycemic activity in lean normal BALB/c mouse assessed as blood glucose level at equimolar dose of 0.5 mmol/kg galegine administered daily through diet for 7 days; format: functional, organism-based
[8] = system: Mus musculus; assay: Antiobesity activity in lean normal BALB/c mouse assessed as change in average daily food intake at 0.40 mmol/kg/day administered through diet for 7 days relative to time-matched control; format: functional
[9] = system: Mus musculus; assay: Antiobesity activity in lean normal BALB/c mouse assessed as change in average daily weight at 0.40 mmol/kg/day administered through diet for 7 days relative to time-matched control; format: functional
[10] = system: Mus musculus; assay: Hypoglycemic activity in lean normal BALB/c mouse assessed as blood glucose level at 0.40 mmol/kg/day administered through diet for 7 days relative to time-matched control; format: functional
[11] = system: Mus musculus; assay: Antiobesity activity in lean normal BALB/c mouse assessed as change in average daily food intake at 0.5 mmol/kg/day administered through diet for 7 days relative to time-matched control; format: functional
[12] = system: Mus musculus; assay: Hypoglycemic activity in lean normal BALB/c mouse assessed as blood glucose level at 0.5 mmol/kg/day administered through diet for 7 days relative to time-matched control; format: functional
[13] = system: Mus musculus; assay: Antiobesity activity in lean normal BALB/c mouse assessed as change in average daily weight at 0.5 mmol/kg/day administered through diet for 7 days relative to time-matched control; format: functional
[14] = system: Mus musculus; assay: Antiobesity activity in lean normal BALB/c mouse assessed as change in average daily food intake at 0.57 mmol/kg/day administered through diet for 7 days relative to time-matched control; format: functional
[15] = system: Mus musculus; assay: Hypoglycemic activity in lean normal BALB/c mouse assessed as blood glucose level at 0.57 mmol/kg/day administered through diet for 7 days relative to time-matched control; format: functional
[16] = system: Mus musculus; assay: Antiobesity activity in lean normal BALB/c mouse assessed as change in average daily weight at 0.57 mmol/kg/day administered through diet for 7 days relative to time-matched control; format: functional
[17] = system: Mus musculus; assay: Antiobesity activity in lean normal BALB/c mouse assessed as change in average daily weight at 0.72 mmol/kg/day administered through diet for 7 days relative to time-matched control; format: functional
[18] = system: Mus musculus; assay: Hypoglycemic activity in lean normal BALB/c mouse assessed as blood glucose level at 0.72 mmol/kg/day administered through diet for 7 days relative to time-matched control; format: functional
[19] = system: Mus musculus; assay: Antiobesity activity in lean normal BALB/c mouse assessed as change in average daily food intake at 0.72 mmol/kg/day administered through diet for 7 days relative to time-matched control; format: functional
[20] = Metabolic stability in ob/ob mouse liver microsomes assessed as oxidative hydroxylation at 50 uM after 45 mins by HPLC-MS analysis; format: ADME, Microsome; details: 0.75 h
[21] = system: Mus musculus; assay: Antiobesity activity in lean normal BALB/c mouse assessed as change in average daily weight at 0.51 mmol/kg/day administered through diet for 7 days relative to time-matched control; format: functional
[22] = system: Mus musculus; assay: Antiobesity activity in lean normal BALB/c mouse assessed as change in average daily food intake at 0.51 mmol/kg/day administered through diet for 7 days relative to time-matched control; format: functional
[23] = system: Mus musculus; assay: Hypoglycemic activity in lean normal BALB/c mouse assessed as blood glucose level at 0.51 mmol/kg/day administered through diet for 7 days relative to time-matched control; format: functional

Row | SMILES | Activity [2] | Activity [4] | Activity [5] | Activity [6] | Activity [7] | other results
1 | COc1ccccc1CNC(=N)N | Non-toxic | – | – | – | – | Activity [1]: -7%; Activity [3]: -4.1%
2 | N=C(N)NCc1c(F)cccc1Cl | – | inactive | inactive | inactive | inactive | –
3 | NC(N)=NCc1ccc2c(c1)OCO2 | Non-toxic | – | – | – | – | Activity [1]: -2%; Activity [3]: -18%
4 | N=C(N)NCCCCNC(=N)N | – | inactive | inactive | inactive | inactive | –
5 | N=C(N)NCc1ccc(O)cc1 | – | inactive | inactive | inactive | inactive | –
6 | Cc1ccc(CNC(=N)N)cc1 | – | inactive | inactive | inactive | inactive | –
7 | N=C(N)NCC1CCCO1 (stereo not given) | – | inactive | inactive | inactive | inactive | –
8 | N=C(N)NCc1ccc(Cl)c(Cl)c1 | Non-toxic | – | – | – | – | Activity [8]: -38.3%; Activity [9]: -9.9%; Activity [10]: 67%
9 | CC(C)=CCNC=N | – | – | – | – | – | Activity [11]: inactive; Activity [12]: inactive; Activity [13]: inactive
10 | CCOc1ccc(CNC(=N)N)cc1 | – | inactive | inactive | inactive | inactive | –
11 | CSCCNC(=N)N | – | inactive | inactive | inactive | inactive | –
12 | N=C(N)NCc1ccccc1Cl | Non-toxic | – | – | – | – | Activity [14]: -21.1%; Activity [15]: 82%; Activity [16]: -10.7%
13 | N=C(N)NCc1cccs1 | Non-toxic | – | – | – | – | Activity [17]: -2.3%; Activity [18]: 88%; Activity [19]: 5.6%; Activity [20]: Stable
14 | COc1ccc(OC)c(CNC(=N)N)c1 | – | inactive | inactive | inactive | inactive | –
15 | N=C(N)NCc1ccccc1Br | Non-toxic | – | – | – | – | Activity [21]: -6%; Activity [22]: -17.7%; Activity [23]: 84%
16 | N=C(N)N1CCc2ccccc2C1 | – | inactive | inactive | inactive | inactive | –
17 | C=CCNC(=N)N | – | inactive | inactive | inactive | inactive | –
18 | COc1ccc(CNC(=N)N)c(OC)c1OC | – | inactive | inactive | inactive | inactive | –
